According to publication PMC4802219, “Improved dialytic removal of protein-bound uraemic toxins with use of albumin binding competitors: an in vitro human whole blood study” (Scientific Reports, 2016):

What was measured:
[1] = target: T1, albumin (Homo sapiens, UniProt P02768); assay: Static RED assay of PBUT displacement by binding competitors in uraemic plasma; conditions: for displacement of IS and PCS: RED assay (Fig. 1); for increase of free fraction of IS / increase of free fraction of PCS: displacer 1 mmol/l, RED 4 h 37 °C, compared to PBS
T1 construct: from tissue; host or cells: human uraemic plasma
Protocol: We evaluated the albumin binding of uraemic toxins and their interaction with displacers in human uraemic plasma utilizing the RED device. Candidate displacers were mixed with uraemic plasma before incubation. The test mixture (300 μl) was added into the sample chamber, while the buffer chamber was filled with 500 μl PBS. After 4 hours of incubation (37 °C, 250 rpm), samples were collected from both chambers for HPLC analysis. The concentration of all displacers and negative control (antipyrine) in the incubations was 1 mmol/l. For furosemide, incubations at final concentration of 0.18 mmol/l were also included since this is the clinically relevant concentration for intravenous administration.
(§1) Blood samples were centrifuged at 13200 rpm for 3 mins. The plasma layer was collected and stored at −80 °C. Plasma samples (50 μl) were precipitated with 100 μl of ice-cold acetonitrile to precipitate the proteins. The samples were then vortexed thoroughly and centrifuged at 3000 rpm for 10 minutes. The supernatant, containing the uraemic toxins and displacers, was collected and further diluted 1:1 with deionized water before HPLC injection. The dialysate samples (100 μl) were diluted with 100 μl water before HPLC injection.
(§2) Measurements were calibrated with standard curves for all analytes, and were linear over the concentration range of the experiments. Measurements were performed on an Agilent 1100 system (Agilent Technologies, Dover, DE, USA) equipped with a C18 column (Kinetex 5 μm C18 100 Å, LC Column 150 × 4.6 mm, Phenomenex, Torrance, CA, USA). Mobile phase A: ammonium formate, 20 mmol/l, pH 4. Mobile phase B: acetonitrile. The gradient profile for mobile phase B was: 0–2 min, 15%; 11–14 min, 100%; 14.2–16 min, 15%; and the flow rate gradient was 0–11.2 min, 0.4 ml/min; 11.2–16 min 0.5 ml/min. […] HIPA and furosemide were detected at 230 nm with the UV-Vis detector. The injection volume was 5 μl.
For PBUT displacement in RED assays, Dunnett’s post-analysis comparisons to PBS were performed by one way ANOVA using GraphPad Prism (GraphPad Software, La Jolla, CA).

[2] = target: T1, albumin; assay: Static RED assay of IS displacement by ibuprofen with or without furosemide in normal human plasma; format: binding; conditions: normal human plasma spiked with IS 150 μmol/l, ibuprofen 0 to 931 μmol/l, furosemide 0.18 mmol/l (Fig. 3)
[3] = parameters: method as in PMID 973966, PMID 3514052; conditions: cited from earlier work
[4] = target: T1, albumin; assay: Single-pass haemodialysis model with uraemic human whole blood and pre-dialyzer displacer infusion
Protocol: All experiments were carried out in triplicate.
as §1
as §2, with “acetonitrile.” for “acetonitrile. The gradient profile for mobile phase B was: 0–2 min, 15%; 11–14 min, 100%; 14.2–16 min, 15%; and the flow rate gradient was 0–11.2 min, 0.4 ml/min; 11.2–16 min 0.5 ml/min.”

[5] = intervention phase vs baseline phase, P < 0.0001

T1 sequence (P02768 25-609): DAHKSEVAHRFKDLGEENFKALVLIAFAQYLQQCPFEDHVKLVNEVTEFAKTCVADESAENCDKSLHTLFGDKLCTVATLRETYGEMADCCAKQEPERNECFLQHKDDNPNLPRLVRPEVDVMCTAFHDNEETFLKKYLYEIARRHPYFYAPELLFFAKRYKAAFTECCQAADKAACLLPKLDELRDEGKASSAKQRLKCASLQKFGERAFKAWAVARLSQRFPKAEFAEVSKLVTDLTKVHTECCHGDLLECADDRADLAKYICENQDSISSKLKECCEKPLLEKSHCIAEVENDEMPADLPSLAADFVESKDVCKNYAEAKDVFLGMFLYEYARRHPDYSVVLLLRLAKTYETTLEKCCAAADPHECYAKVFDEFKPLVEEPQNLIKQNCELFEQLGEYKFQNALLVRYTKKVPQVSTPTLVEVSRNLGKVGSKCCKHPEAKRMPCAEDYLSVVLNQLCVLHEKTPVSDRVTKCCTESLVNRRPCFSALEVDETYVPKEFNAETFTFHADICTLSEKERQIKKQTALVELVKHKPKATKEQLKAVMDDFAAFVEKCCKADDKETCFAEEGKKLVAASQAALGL

SMILES: NS(=O)(=O)c1cc(C(=O)O)c(NCc2ccco2)cc1Cl [furosemide]
- increase in the free fraction of IS ([1]; furosemide alone at 0.18 mmol/l (Fig. 1)): did not induce a significant increase
- displacement of IS and PCS ([1]; uraemic plasma): limited displacement effect
- displacement of HIPA ([1]; uraemic plasma, RED assay (Fig. 2)): significant displacement
- increase of free fraction of IS ([1]; uraemic plasma): ~1.3 fold
- increase of free fraction of PCS ([1]; uraemic plasma): ~1.3 fold
- effect on IS displacement by ibuprofen when given simultaneously [2]: boost the IS displacement effect of ibuprofen

SMILES: Cc1cc(=O)n(-c2ccccc2)n1C [antipyrine]
- change in uraemic toxin protein binding ([1]; uraemic plasma, negative control 1 mmol/l (Figs 1 and 2)): did not lead to a significant change
- protein binding capability [3]: lacks protein binding capability

SMILES: N[C@@H](Cc1c[nH]c2ccccc12)C(=O)O [tryptophan, L-Tryptophan]
- displacement of IS and PCS ([1]; uraemic plasma): more efficiently than HIPA
- increase of free fraction of IS ([1]; uraemic plasma): ~2 fold
- increase of free fraction of PCS ([1]; uraemic plasma): ~2 fold
- HIPA removal ([4]; human whole blood, HIPA 400 μmol/l (1 mmol/l with tryptophan) (Fig. 6)): virtually unaffected
- fractional removal of IAA during displacer infusion ([4]; human whole blood, IAA 15 μmol/l, Qb 12.5 ml/min, Qd 25 ml/min, mean ± SEM, N = 3): 27.1 ± 0.3%
- fractional removal of IS during displacer infusion ([4]; human whole blood, IS 150 μmol/l, Qb 12.5 ml/min, Qd 25 ml/min, mean ± SEM, N = 3): 10.5 ± 0.1%
- increase of IAA removal [4, 5]: 1.3 fold
- increase of IS removal [4, 5]: 1.4 fold
